# Test results reported in ChEMBL document CHEMBL1144987, “Synthesis and In vivo anti-inflammatory activity of long-chain 2-amino-alcohols” (2003).
# Legend:
# Assay type in all cases: functional
# Rattus norvegicus [1] = assay: Analgesic activity in rats by acetic acid writhing test at a dose of 0.010 mmol/kg
# Rattus norvegicus [2] = assay: In vivo antiinflammatory activity by rat carrageenan-induced paw edema assay
# Rattus norvegicus [3] = assay: Analgesic activity in rats by acetic acid writhing test at a dose of 0.017 mmol/kg
Compound,Analgesic activity (Rattus norvegicus [1]),ED50 (Rattus norvegicus [2]),Analgesic activity (Rattus norvegicus [3])
CCCCCCCC/C=C/CCCCCC[C@H](N)CO.Cl,88.1%,10 µmol/kg,–
COc1ccc2c(c1)c(CC(=O)O)c(C)n2C(=O)c1ccc(Cl)cc1 [INDOMETHACIN],–,11 µmol/kg,47%
CCCCCCCCCCCCCC[C@@H](N)CO.Cl,–,17 µmol/kg,72.6%
CCCCCCCCCCCCCC[C@H](N)CO.Cl,–,17 µmol/kg,89.2%
CCCCCCCCCCCCOC[C@@H](N)CO.Cl,95.6%,10 µmol/kg,–
